Tested on: gastric tone (fundus of the stomach)
Assay: Gastric tone measured by an electronic barostat in conscious dogs
Format: in vivo, dog
Conditions: mean maximal change in intragastric volume on relaxation of the fundus, 1 hour after S.C. administration, 0.63 mg/kg, conscious female beagle dogs, barostat at 2 mmHg
Protocol: Gastric tone cannot be measured by manometric methods. Therefore an electronic barostat was used. This allows the study of the physiological pattern and regulation of gastric tone in conscious dogs and the influence of test-compounds on this tone.
The barostat consists of an air injection system which is connected by a double-lumen 14-French polyvinyl tube to an ultrathin flaccid polyethylene bag (maximal volume: ±700 ml). Variations in gastric tone were measured by recording changes in the volume of air within an intragastric bag, maintained at a constant pressure. The barostat maintains a constant pressure (preselected) within a flaccid air-filled bag introduced into the stomach, changing the volume of air within the bag by an electronic feedback system.
Thus, the barostat measures gastric motor activity (contraction or relaxation) as changes in intragastric volume (decrease or increase resp.) at a constant intragastric pressure. The barostat consists of a strain gauge linked by an electronic relay to an air injection-aspiration system Both the strain gauge and the injection system are connected by means of double-lumen polyvinyl tube to an ultrathin polyethylene bag. A dial in the barostat allows selection of the pressure level to be maintained within the intragastric bag.
Female beagle dogs, weighing 7-17 kg, were trained to stand quietly in Pavlov frames. They were implanted with a gastric cannula under general anaesthesia and aseptic precautions. After a median laparotomy, an incision was made through the gastric wall in longitudinal direction between the greater and the lesser curve, 2 cm above the nerves of Latarjet. The cannula was secured to the gastric wall by means of a double purse string suture and brought out via a stub wound at the left quadrant of the hypochondrium Dogs were allowed a recovery period of two weeks.
At the beginning of the experiment, the cannula was opened in order to remove any gastric juice or food remnants. If necessary, the stomach was cleansed with 40 to 50 ml lukewarm water. […]

| SMILES | Maximum change in volume (mean) |
| --- | --- |
| c1ccc(CN2CCCC(c3nc4ncccc4[nH]3)CC2)cc1 (racemic) [Compound 69, (±)-2-[hexahydro-1-(phenylmethyl)-1H-azepin-4-yl]-1H-imidazo[4,5-b]pyridine] | 87 mL |
| c1ccc(CN2CCCC(c3nc4ncccc4[nH]3)CC2)cc1 (single isomer, unassigned; (+)) [Compound 81, (+)-2-[hexahydro-1-(phenylmethyl)-1H-azepin-4-yl]-1H-imidazo[4,5-b]pyridine] | 183 mL |
| c1ccc(CN2CCCC(c3nc4ncccc4[nH]3)CC2)cc1 (single isomer, unassigned; (-)) [Compound 80, (−)-2-[hexahydro-1-(phenylmethyl)-1H-azepin-4-yl]-1H-imidazo[4,5-b]pyridine] | 55 mL |

Reference: patent publication US7304052B2, “Substituted homopiperidinyl benzimidazole analogues as fundic relaxants” (Janssen Pharmaceuitca N.V., priority 1999, dated 2007)
